B1: A box: Human HMGB1 mutant containing only the A box (amino terminus + A box), SEQ ID NO: 21 (protein, listed as Homo sapiens)
chain: MGKGDPKKPTGKMSSYAFFVQTCREEHKKKHPDASVNFSEFSKKCSERWKTMSAKEKGKFEDMAKADKARYEREMKTYIPPKGET
B2: carboxyl-truncated HMGB1: Human HMGB1 mutant in which the carboxy terminus was deleted, SEQ ID NO: 19 (protein, listed as Homo sapiens)
chain: MGKGDPKKPTGKMSSYAFFVQTCREEHKKKHPDASVNFSEFSKKCSERWKTMSAKEKGKFEDMAKADKARYEREMKTYIPPKGETKKKFKDPNAPKRLPSAFFLFCSEYRPKIKGEHPGLSIGDVAKKLGEMWNNTAADDKQPYEKKAAKLKEKYEKDIAAYRAKGKPDAAKKGVVKAEKSK
B3: wild-type HMGB1: Recombinant full length human HMGB1, SEQ ID NO: 18 (protein, listed as Homo sapiens)
chain: MGKGDPKKPTGKMSSYAFFVQTCREEHKKKHPDASVNFSEFSKKCSERWKTMSAKEKGKFEDMAKADKARYEREMKTYIPPKGETKKKFKDPNAPKRLPSAFFLFCSEYRPKIKGEHPGLSIGDVAKKLGEMWNNTAADDKQPYEKKAAKLKEKYEKDIAAYRAKGKPDAAKKGVVKAEKSKKKKEEEEDEEDEEDEEEEEDEEDEEDEEEDDDDE

Columns and labels:
[1] = tested on: Murine macrophage-like RAW 264.7 cells; test: TNF release from RAW 264.7 cells (L929 cytotoxicity bioassay); assay type: cell-based; conditions: for TNF release by synthetic peptide fragment of the B box: 10 μg/ml synthetic peptide, 10 hours (FIG. 3); for TNF release: 1 μg/ml protein, 8 hours, RAW 264.7 cells (FIG. 1)
Description: Murine macrophage-like RAW 264.7 cells (American Type Culture Collection, Rockville, Md.) were cultured in RPMI 1640 medium (Life Technologies, Grand Island N.Y.) supplemented with 10% fetal bovine serum (Gemini, Catabasas, Calif.), penicillin and streptomycin (Life Technologies) and were used at 90% confluence in serum-free Opti-MEM I medium (Life Technologies, Grand Island, N.Y.). […] Polymyxin B was not used in experiments of synthetic peptide studies.
TNF release was measured by a standard murine fibroblast L929 (ATCC, American Type Culture Collection, Rockville, Md.) cytotoxicity bioassay (Bianchi et al., Journal of Experimental Medicine 183:927-936, 1996) with the minimum detectable concentration of 30 pg/ml. Recombinant mouse TNF was obtained from R&D system Inc., (Minneapolis, MN). Murine fibroblast L929 cells (ATCC) were cultured in DMEM (Life Technologies, Grand Island, N.Y.) supplemented with 10% fetal bovine serum (Gemini, Catabasas, Calif.), penicillin (50 units/ml) and streptomycin (50 μg/ml) (Life Technologies) in a humidified incubator with 5% CO2.
The effect of the mutants on TNF release from Murine macrophage-like RAW 264.7 cells (ATCC) was carried out as follows. RAW 264.7 cells were cultured in RPMI 1640 medium (Life Technologies, Grand Island N.Y.) supplemented with 10% fetal bovine serum (Gemini, Catabasas, Calif.), penicillin and streptomycin (Life Technologies). Polymyxin (Sigma, St. Louis, Mo.) was added at 100 units/ml to suppress the activity of any contaminating LPS. Cells were incubated with 1 μg/ml of full length (wild-type) HMGB1 and each HMGB1 mutant protein in Opti-MEM I medium for 8 hours, and conditioned supernatants (containing TNF which had been released from the cells) were collected and TNF released from the cells was measured by a standard murine fibroblast L929 (ATCC) cytotoxicity bioassay (Bianchi et al., supra) with the minimum detectable concentration of 30 pg/ml. Recombinant mouse TNF was obtained from R & D Systems Inc., (Minneapolis, Minn.) and used as control in these experiments. Data in FIG. 1 are all presented as mean+SEM unless otherwise indicated. (=6−10).
To further examine the effect of HMGB1 B box on cytokine production, varying amounts of HMGB1 B box were evaluated for the effects on TNF, IL-1B, and IL-6 production in murine macrophage-like RAW 264.7 cells. Conditioned media were harvested and measured for TNF, IL-1β and IL-6 levels. TNF levels were measured as described herein, and IL-1β and IL-6 levels were measured using the mouse IL-1β and IL-6 enzyme-linked immunosorbent assay (ELISA) kits (R&D System Inc., Minneapolis, 1) and N>5 for all experiments.
The kinetics of B box-induced TNF release was also examined. TNF release and TNF mRNA expression was measured in RAW 264.7 cells induced by B box polypeptide or GST tag polypeptide only used as a control (vector) (10 μg/ml) for 0 to 48 hours. Supernatants were analyzed for TNF protein levels by an L929 cytotoxicity assay (N=3-5) as described herein. For mRNA measurement, cells were plated in 100 mm plate and treated in Opti-MEM I medium containing B box polypeptide or the vector alone for 0, 4, 8, or 24 hours, as indicated in FIG. 2D. The vector only sample was assayed at the 4 hour time point. Cells were scraped off the plate and total RNA was isolated by RNAzol B method in accordance with the manufacturer's instructions (Tel-Test “B”, Inc., Friendswood, Tex.). TNF (287 bp) was measured by RNase protection assay (Ambion, Austin, Tex.). Equal loading and the integrity of RNA was verified by ethidium bromide staining of the RNA sample on agarose-formaldehyde gel. […] TNF mRNA expression was maximal at 4 hours and decreased at 8 and 24 hours. […] A similar study was carried out measuring TNF protein released from RAW 264.7 cells 0, 4, 8, 24, 32 or 48 hours after administration of B box or vector only (GST tag), using the L929 cytotoxicity assay described herein. […] Data are representative of three separate experiments. […]

[2] = tested on: RAW 264.7 cells; conditions: polymyxin B alone, 100-1,000 units/ml; cited from earlier work

Molecule	TNF release by synthetic peptide fragment of the B box [1]	TNF release [1]	also measured
fkdpnapkrlpsafflfcse (FKDPNAPKRLPSAFFLFCSE; listed as Homo sapiens) [1-20-mer]	TNF-stimulating activity was retained	–	TNF stimulating activity relative to full length synthetic B box (1-74-mer) or full length HMGB1 ([1]; peptide 10 μg/ml, 10 hours): less potent
Polymyxin B	–	–	cell viability [2]: did not influence cell viability
30-49: Synthetic peptide, amino acids 30-49 of the HMGB1 B box (SEQ ID NO: 20) (PGLSIGDVAKKLGEMWNNTA; listed as Homo sapiens)	did not induce TNF release	–	–
45-64: Synthetic peptide, amino acids 45-64 of the HMGB1 B box (SEQ ID NO: 20) (WNNTAADDKQPYEKKAAKLK; listed as Homo sapiens)	did not induce TNF release	–	–
60-74: Synthetic peptide, amino acids 60-74 of the HMGB1 B box (SEQ ID NO: 20) (AAKLKEKYEKDIAAY; listed as Homo sapiens)	did not induce TNF release	–	–
16-25: Synthetic peptide, amino acids 16-25 of the HMGB1 B box (SEQ ID NO: 20) (LFCSEYRPKI; listed as Homo sapiens)	did not induce TNF release	–	–
B1	–	only weakly activated TNF release	–
B2	–	significantly stimulated TNF release	–
B3	–	significantly stimulated TNF release	–
